Here are results for one molecule from patent publication US20250262199A1, “TREATMENT OF AUTOIMMUNE SKIN DISEASE” (ASLAN PHARMACEUTICALS PTE LTD, priority 2022, published 2025).

What all share (type): in vivo
The test system of assay [1] is Alopecia areata mouse model (C3H/HeJ mice). As to the kind of experiment: Hair coverage in Alopecia areata mouse model (C3H/HeJ skin graft). To be noted: 150 or 300 mg/kg/day once daily oral gavage, week 8 time point (10 weeks after engraftment), vs vehicle; interim data; FIG. 3. The protocol: The C3H/HeJ mouse strain is known to spontaneously develop alopecia (AA) at a low frequency over a prolonged time frame. Transplantation of AA-affected skin from a C3H/HeJ mouse to unaffected C3H/HeJ recipients will induce the development of AA in nearly 100% of recipients over 4-8 weeks. Accordingly, to produce the AA mouse model, AA-affected C3H/HeJ skin was grafted onto groups of unaffected C3H/HeJ mice. The following treatment groups (n=10 per treatment group) were tested: • 1. Vehicle 0.5% methylcellulose (negative control) • 2. 150 mg/kg/day farudostat • 3. 300 mg/kg/day farudostat Treatments were administered once daily by oral gavage starting 2 weeks after engraftment and concluded after 12 weeks (84 days) of treatment. Photographs were taken at baseline, and every 4 weeks until the end of study Ventral hair growth was scored based on the photographs. Any mouse that had >98% hair coverage was classified as ‘no hair loss’.

Assay [2] has as its system vitiligo mouse model (transgenic Krt14-KitL* (SCF) mice). As to the kind of experiment: Vitiligo scoring in vitiligo mouse model. To be noted: oral gavage, 6 weeks (30 treatment days), FIG. 1.
The test system of the next assay is PMEL T cells. As to the kind of experiment: Flow cytometry of PMEL T cell counts in tissues of vitiligo mouse model. On the technique in general: Flow cytometry measures light scatter and fluorescence of single cells or particles in a stream.

As for `COc1cccc(-c2cc(F)c(Nc3ncccc3C(=O)O)c(F)c2)c1` [farudostat, 2-(3,5-difluoro-3′-methoxybiphenyl-4-ylamino) nicotinic acid], in assay [1], the “mean % hair coverage” value is “slight improvement in % hair coverage”. The “final mean vitiligo score” value is given as “improvement in vitiligo score” in assay [2] (75 mg/kg/day, vs vehicle); “greater improvement in vitiligo score compared to the 75 mg/kg/day group” in assay [2] (150 mg/kg/day, vs vehicle and 75 mg/kg/day group). Also, in the assay on PMEL T cells (150 mg/kg/day, oral gavage, FIGS. 2A to 2D), the “mean PMEL count, 150 mg/kg/day compared to 75 mg/kg/day” value is given as “greater reduction in mean PMEL count compared to 75 mg/kg/day”. The “mean PMEL T cell count, dermis” value with PMEL T cells (farudostat 75 and 150 mg/kg/day, oral gavage, end of experiment, FIG. 2B) is reported as “reduction in mean Pmel T cell count”. The “mean PMEL T cell count, epidermis” value with PMEL T cells (farudostat 75 and 150 mg/kg/day, oral gavage, end of experiment, FIG. 2C) is reported as “reduction in mean Pmel T cell count”. Further, the “mean PMEL count, spleen” value with PMEL T cells (spleen, compared with anti-IFNγ positive control, FIG. 2D) is given as “reduction in mean PMEL count in the spleen that was even greater than that observed for anti-IFNγ”.
